Measurements published in PubChem BioAssay (NCI).
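Assay format: 96-well plates, 48-hour exposure. TGI is the concentration that stops growth completely.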

Assays:
Experiment in all cases: growth of human tumour cells (NCI), 48 h
[1] = tested on: 786-0 renal
[2] = tested on: ACHN renal
[3] = tested on: BT-549 breast
[4] = tested on: HCC-2998 colon
[5] = tested on: HCT-116 colon
[6] = tested on: HL-60(TB) leukemia
[7] = tested on: HS 578T breast
[8] = tested on: K-562 leukemia
[9] = tested on: MDA-N
[10] = tested on: MOLT-4 leukemia
[11] = tested on: NCI/ADR-RES ovarian
[12] = tested on: OVCAR-8 ovarian
[13] = tested on: RPMI-8226 leukemia
[14] = tested on: SK-MEL-5 melanoma
[15] = tested on: SNB-19 CNS
[16] = tested on: UO-31 renal
[17] = tested on: COLO 205 colon
[18] = tested on: HOP-92 NSCLC
[19] = tested on: NCI-H460 lung
[20] = tested on: OVCAR-3 ovarian

Structure (SMILES)	TGI [1] [µM]	TGI [2] [µM]	TGI [3] [µM]	TGI [4] [µM]	TGI [5] [µM]	TGI [6] [µM]	TGI [7] [µM]	TGI [8] [µM]	TGI [9] [µM]	TGI [10] [µM]	TGI [11] [µM]	TGI [12] [µM]	TGI [13] [µM]	TGI [14] [µM]	TGI [15] [µM]	TGI [16] [µM]	TGI [17] [µM]	TGI [18] [µM]	TGI [19] [µM]	TGI [20] [µM]
CCCCCCC1CC(=O)C1(Cl)Cl (centres undefined)	32.2	35.8	48.6	57.4	30.4	44.1	> 100	> 100	85	52.1	> 100	59.5	2.48	31.2	> 100	34.2	–	–	–	–
COc1ccc2c(c1)CCc1c-2n(CCN2CCOCC2)c2ccc(OC)cc12	> 100	> 100	> 100	33.2	> 100	–	> 100	54	> 100	41.1	> 100	> 100	> 100	> 100	–	> 100	> 100	> 100	> 100	> 100
O=C(NNC(=O)c1ccccc1O)c1ccco1	> 100	–	> 100	–	> 100	> 100	> 100	> 100	> 100	> 100	> 100	> 100	> 100	> 100	> 100	> 100	> 100	–	> 100	> 100
CCOC(=O)C(NC(=O)c1cccc(Cl)c1)(N1CCN(c2cc3c(cc2F)c(=O)c(C(=O)O)cn3C2CC2)CC1)C(F)(F)F (centres undefined)	28.3	31	38.4	34.8	25.5	6.64	58	20.1	29.4	15.9	–	60.7	23.6	25.5	84.9	47.3	30.2	34.6	42.9	29.5
CSc1nc(Br)nc2ncn(C3CC(Oc4ccc(C)cc4)C(COc4ccc(C)cc4)O3)c12 (centres undefined)	> 100	> 100	> 100	> 100	> 100	> 100	63.5	–	> 100	> 100	> 100	> 100	> 100	> 100	> 100	75.7	> 100	> 100	> 100	> 100
Cn1ccoc1=Nc1ccc(Cl)c(Cl)c1	> 10	> 10	> 10	> 10	> 10	–	> 10	> 10	> 10	> 10	> 10	> 10	> 10	> 10	> 10	> 10	> 10	> 10	> 10	> 10
C[N+](C)(C)CCOP(=O)([O-])OCCNC(=O)c1ccc2ccccc2c1	> 100	> 100	> 100	> 100	> 100	> 100	–	> 100	> 100	> 100	> 100	> 100	> 100	> 100	> 100	> 100	> 100	–	–	> 100
CC(C)(C)OC(=O)NC(CS(=O)(=O)O)C(=O)O (centres undefined)	> 100	> 100	> 100	> 100	> 100	> 100	–	> 100	> 100	> 100	> 100	> 100	> 100	> 100	> 100	> 100	> 100	> 100	> 100	> 100
COCCOC1=C(Cl)C(=O)c2c(O)ccc(O)c2C1=O	3.23	2.96	5.44	15.6	2.6	–	8.34	–	3.03	0.481	8.5	6.66	1.75	5.15	29.2	3.83	2.34	2.2	17.2	3.08
Cc1cc2cc3ccccc3cc2c(=O)[nH]1	> 10	> 10	> 10	–	> 10	> 10	> 10	> 10	> 10	> 10	–	> 10	–	–	> 10	> 10	–	> 10	> 10	> 10
O=c1c2ccccc2nc2sc(/N=C/C=C/c3ccccc3)nn12	> 100	> 100	> 100	> 100	> 100	–	> 100	> 100	> 100	> 100	> 100	> 100	> 100	> 100	> 100	> 100	> 100	> 100	> 100	> 100
COC(=O)[C@@H]1COC(C(C)(C)C)N1C(=O)C(c1ccccc1)c1ccccc1 (some centres undefined)	> 100	> 100	> 100	> 100	> 100	83.4	> 100	70.4	69.2	> 100	> 100	> 100	–	> 100	> 100	> 100	> 100	> 100	> 100	> 100
COC(=O)/C=C(\C)CC/C=C(\C)CCC(O)C(C)(C)O (centres undefined)	42.5	75	84	47.2	44.9	42.2	98.5	76.7	57.8	39	52.5	67	–	33.4	> 100	> 100	38.3	> 100	37.8	65.3
